Measurements reported in patent publication US6737383B1, “Herbicidal oxadiazolidines” (priority 1999, dated 2004).

Assays:
bedstraw = assay: Test B pre/postemergence bedstraw; format: in vivo, Galium aparine
Text: (§1) Seeds of bedstraw (Galium aparine), blackgrass (Alopecurus myosuroides), surinam grass (Brachiaria decumbens), cocklebur (Xanthium strumarium), corn (Zea mays), crabgrass (Digitaria sanguinalis), giant foxtail (Setaria faberii), morningglory (Ipomoea hederacea), pigweed (Amaranthus retroflexus), rape (Brassica napus), soybean (Glycine max), sugar beet (Beta vulgaris), velvetleaf (Abutilon theophrasti), wheat (Triticum aestivum), wild oat (Avena fatua) and purple nutsedge (Cyperus rotundus) tubers were planted and treated preemnergence with test chemicals formulated in a non-phytotoxic solvent mixture which included a surfactant.
(§2) At the same time, these crop and weed species were also treated with postemergence applications of test chemicals formulated in the same manner. Plants ranged in height from 2 to 18 cm (1- to 4-leaf stage) for postemergence treatments. Plant species in the flood test consisted of rice (Oryza sativa), smallflower flatsedge (Cyperus difformis), duck salad (Heteranthera limosa) and bamyardgrass (Echinochloa crus-galli) grown to the 2-leaf stage for testing. Treated plants and controls were maintained in a greenhouse for twelve to sixteen days, after which all species were compared to controls and visually evaluated. Plant response ratings, summarized in Table B, are based on a scale of 0 to 10 where 0 is no effect and 10 is complete control. A dash (−) response means no test result.

blackgrass = assay: Test B pre/postemergence blackgrass; format: in vivo, Alopecurus myosuroides
Text: as §1, §2

surinam grass = assay: Test B pre/postemergence surinam grass; format: in vivo, Brachiaria decumbens; settings: Postemergence
Text: as §1, §2

cocklebur = assay: Test B pre/postemergence cocklebur; format: in vivo, Xanthium strumarium
Text: as §1, §2

corn = assay: Test B pre/postemergence corn; format: in vivo, Zea mays
Text: as §1, §2

crabgrass = assay: Test B pre/postemergence crabgrass; format: in vivo, Digitaria sanguinalis
Text: as §1, §2

giant foxtail = assay: Test B pre/postemergence giant foxtail; format: in vivo, Setaria faberii
Text: as §1, §2

morningglory = assay: Test B pre/postemergence morningglory; format: in vivo, Ipomoea hederacea
Text: as §1, §2

pigweed = assay: Test B pre/postemergence pigweed; format: in vivo, Amaranthus retroflexus
Text: as §1, §2

rape = assay: Test B pre/postemergence rape; format: in vivo, Brassica napus
Text: as §1, §2

soybean = assay: Test B pre/postemergence soybean; format: in vivo, Glycine max
Procedure, shortened: (§3)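 Response is a visual 0-to-10 score relative to untreated plants, where 0 means no effect and 10 means complete control, taken twelve to sixteen days after application. Treatments went onto soil at planting and onto foliage of 1- to 4-leaf plants, using a surfactant-containing non-phytotoxic solvent.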

sugar beet = assay: Test B pre/postemergence sugar beet; format: in vivo, Beta vulgaris
Text: as §1, §2

velvetleaf = assay: Test B pre/postemergence velvetleaf; format: in vivo, Abutilon theophrasti
Text: as §1, §2

wheat = assay: Test B pre/postemergence wheat; format: in vivo, Triticum aestivum
Text: as §1, §2

wild oat = assay: Test B pre/postemergence wild oat; format: in vivo, Avena fatua
Text: as §1, §2

purple nutsedge = assay: Test B pre/postemergence purple nutsedge; format: in vivo, Cyperus rotundus
Procedure, shortened: as §3

[1] = Postemergence, Rate 125 g/ha, scale of 0 to 10 where 0 is no effect and 10 is complete control
[2] = Postemergence, Rate 500 g/ha, scale 0 (no effect) to 10 (complete control)
[3] = Postemergence, Rate 1000 g/ha, scale 0 to 10 (0 no effect, 10 complete control)
[4] = Rate 125 g/ha, Preemergence, scale 0 to 10 (0 no effect, 10 complete control)
[5] = Rate 250 g/ha, Postemergence, scale 0 to 10, 0 is no effect, 10 is complete control
[6] = Rate 500 g/ha, Preemergence, scale 0 to 10 (0 no effect, 10 complete control)
[7] = Rate 1000 g/ha, Preemergence, scale 0 to 10 (0 no effect, 10 complete control)
[8] = Preemergence, Rate 250 g/ha, scale 0 (no effect) to 10 (complete control)

With `COP(=O)(CCn1c(=O)on(C(=O)N(c2ccc(F)cc2F)C(C)C)c1=O)OC` [Compound 777] as the compound, how does the “Bedstraw plant response rating” value (bedstraw; [1]) read?
The value was 0.

And the “Bedstraw plant response rating” value (bedstraw; [2])?
Its value is 3.

What about the “Bedstraw plant response rating” value (bedstraw; [3]) of the same compound?
The value was 6.

And the “Bedstraw plant response rating” value (bedstraw; [4])?
The value was 0.

What about the “Bedstraw plant response rating” value (bedstraw; [5]) of the same compound?
Its value is 2.

And the “Bedstraw plant response rating” value (bedstraw; [6])?
The value was 0.

What about the “Plant response rating, Bedstraw” value (bedstraw; [7]) of the same compound?
The value was 3.

And the “Blackgrass plant response rating” value (blackgrass; [1])?
The value was 0.

What about the “Blackgrass plant response rating” value (blackgrass; [2]) of the same compound?
The value was 4.

And the “Blackgrass plant response rating” value (blackgrass; [3])?
Its value is 4.

And the “Blackgrass plant response rating” value (blackgrass; [8])?
The value was 10.

And the “Blackgrass plant response rating” value (blackgrass; [4])?
The value was 2.

And the “Blackgrass plant response rating” value (blackgrass; [5])?
The value was 2.

What about the “Blackgrass plant response rating” value (blackgrass; [6]) of the same compound?
The value was 10.

And the “Plant response rating, Blackgrass” value (blackgrass; [7])?
Its value is 10.

What about the “B. signalgrass plant response rating” value (surinam grass; Rate 125 g/ha, scale of 0 to 10 where 0 is no effect and 10 is complete control) of the same compound?
The value was 2.

And the “B. signalgrass plant response rating” value (surinam grass; Rate 1000 g/ha, scale 0 to 10 (0 no effect, 10 complete control))?
The value was 8.

What about the “B. signalgrass plant response rating” value (surinam grass; Rate 250 g/ha, scale 0 to 10, 0 is no effect, 10 is complete control) of the same compound?
Its value is 2.

And the “B. signalgrass plant response rating” value (surinam grass; Rate 500 g/ha, scale 0 to 10, 0 is no effect, 10 is complete control)?
Its value is 3.

What about the “Cocklebur plant response rating” value (cocklebur; [1]) of the same compound?
The value was 0.

What about the “Cocklebur plant response rating” value (cocklebur; [2]) of the same compound?
Its value is 0.

And the “Cocklebur plant response rating” value (cocklebur; [3])?
Its value is 0.

And the “Cocklebur plant response rating” value (cocklebur; [8])?
The value was 0.

And the “Cocklebur plant response rating” value (cocklebur; [4])?
The value was 0.

What about the “Cocklebur plant response rating” value (cocklebur; [5]) of the same compound?
Its value is 0.

What about the “Cocklebur plant response rating” value (cocklebur; [6]) of the same compound?
Its value is 0.

What about the “Corn plant response rating” value (corn; [1]) of the same compound?
The value was 0.

What about the “Corn plant response rating” value (corn; [2]) of the same compound?
The value was 0.

What about the “Corn plant response rating” value (corn; [3]) of the same compound?
The value was 0.

And the “Corn plant response rating” value (corn; [8])?
The value was 0.

And the “Corn plant response rating” value (corn; [4])?
The value was 0.

What about the “Corn plant response rating” value (corn; [5]) of the same compound?
The value was 0.

And the “Corn plant response rating” value (corn; [6])?
The value was 0.

And the “Plant response rating, Corn” value (corn; [7])?
The value was 0.

And the “Crabgrass plant response rating” value (crabgrass; [1])?
Its value is 4.

What about the “Crabgrass plant response rating” value (crabgrass; [2]) of the same compound?
Its value is 9.

And the “Crabgrass plant response rating” value (crabgrass; [8])?
The value was 10.

And the “Crabgrass plant response rating” value (crabgrass; [4])?
The value was 10.

And the “Crabgrass plant response rating” value (crabgrass; [5])?
Its value is 7.

What about the “Crabgrass plant response rating” value (crabgrass; [6]) of the same compound?
The value was 10.

What about the “Plant response rating, Crabgrass” value (crabgrass; [7]) of the same compound?
The value was 10.

What about the “Giant foxtail plant response rating” value (giant foxtail; [1]) of the same compound?
The value was 8.

And the “Giant foxtail plant response rating” value (giant foxtail; [2])?
Its value is 9.

And the “Giant foxtail plant response rating” value (giant foxtail; [3])?
Its value is 9.

And the “Giant foxtail plant response rating” value (giant foxtail; [8])?
The value was 10.

And the “Giant foxtail plant response rating” value (giant foxtail; [4])?
The value was 10.

And the “Giant foxtail plant response rating” value (giant foxtail; [5])?
The value was 8.

And the “Giant foxtail plant response rating” value (giant foxtail; [6])?
The value was 10.

And the “Plant response rating, Giant foxtail” value (giant foxtail; [7])?
Its value is 10.

And the “Morningglory plant response rating” value (morningglory; [1])?
The value was 8.

What about the “Morningglory plant response rating” value (morningglory; [2]) of the same compound?
The value was 8.

And the “Morningglory plant response rating” value (morningglory; [3])?
Its value is 8.

What about the “Morningglory plant response rating” value (morningglory; [4]) of the same compound?
Its value is 1.

And the “Morningglory plant response rating” value (morningglory; [5])?
The value was 8.

What about the “Morningglory plant response rating” value (morningglory; [6]) of the same compound?
The value was 5.

What about the “Plant response rating, Morningglory” value (morningglory; [7]) of the same compound?
The value was 7.

And the “Redroot pigweed plant response rating” value (pigweed; [1])?
The value was 2.

What about the “Redroot pigweed plant response rating” value (pigweed; [2]) of the same compound?
Its value is 4.

And the “Redroot pigweed plant response rating” value (pigweed; [3])?
The value was 8.

What about the “Redroot pigweed plant response rating” value (pigweed; [4]) of the same compound?
Its value is 2.

What about the “Redroot pigweed plant response rating” value (pigweed; [5]) of the same compound?
Its value is 4.

And the “Redroot pigweed plant response rating” value (pigweed; [6])?
Its value is 2.

What about the “Plant response rating, Redroot pigweed” value (pigweed; [7]) of the same compound?
The value was 9.

What about the “Rape plant response rating” value (rape; [1]) of the same compound?
Its value is 0.

And the “Rape plant response rating” value (rape; [2])?
The value was 0.

What about the “Rape plant response rating” value (rape; [3]) of the same compound?
Its value is 0.

And the “Rape plant response rating” value (rape; [4])?
Its value is 0.

And the “Rape plant response rating” value (rape; [5])?
The value was 0.

And the “Rape plant response rating” value (rape; [6])?
Its value is 2.

What about the “Plant response rating, Rape” value (rape; [7]) of the same compound?
The value was 7.

What about the “Soybean plant response rating” value (soybean; [2]) of the same compound?
Its value is 6.

What about the “Soybean plant response rating” value (soybean; [4]) of the same compound?
Its value is 0.

And the “Soybean plant response rating” value (soybean; [5])?
The value was 3.

And the “Soybean plant response rating” value (soybean; [6])?
The value was 0.

And the “Plant response rating, Soybean” value (soybean; [7])?
Its value is 0.

What about the “Sugarbeets plant response rating” value (sugar beet; [2]) of the same compound?
The value was 5.

And the “Sugarbeets plant response rating” value (sugar beet; [4])?
The value was 0.

What about the “Sugarbeets plant response rating” value (sugar beet; [5]) of the same compound?
Its value is 3.

And the “Sugarbeets plant response rating” value (sugar beet; [6])?
Its value is 3.

And the “Plant response rating, Sugarbeets” value (sugar beet; [7])?
The value was 3.

What about the “Velvetleaf plant response rating” value (velvetleaf; [2]) of the same compound?
The value was 5.

What about the “Velvetleaf plant response rating” value (velvetleaf; [4]) of the same compound?
Its value is 0.

What about the “Velvetleaf plant response rating” value (velvetleaf; [5]) of the same compound?
Its value is 3.

What about the “Velvetleaf plant response rating” value (velvetleaf; [6]) of the same compound?
The value was 0.

And the “Plant response rating, Velvetleaf” value (velvetleaf; [7])?
Its value is 3.

And the “Wheat plant response rating” value (wheat; [2])?
The value was 3.

What about the “Wheat plant response rating” value (wheat; [4]) of the same compound?
The value was 0.

What about the “Wheat plant response rating” value (wheat; [5]) of the same compound?
The value was 2.

What about the “Wheat plant response rating” value (wheat; [6]) of the same compound?
The value was 9.

What about the “Plant response rating, Wheat” value (wheat; [7]) of the same compound?
The value was 9.

What about the “Wild oats plant response rating” value (wild oat; [2]) of the same compound?
Its value is 3.

What about the “Wild oats plant response rating” value (wild oat; [4]) of the same compound?
Its value is 3.

What about the “Wild oats plant response rating” value (wild oat; [5]) of the same compound?
Its value is 2.

And the “Wild oats plant response rating” value (wild oat; [6])?
The value was 9.

And the “Plant response rating, Wild oats” value (wild oat; [7])?
The value was 9.

What about the “Nutsedge plant response rating” value (purple nutsedge; [2]) of the same compound?
The value was 3.

And the “Nutsedge plant response rating” value (purple nutsedge; [3])?
The value was 3.

What about the “Nutsedge plant response rating” value (purple nutsedge; [4]) of the same compound?
The value was 0.

And the “Nutsedge plant response rating” value (purple nutsedge; [5])?
The value was 0.

What about the “Plant response rating, Nutsedge” value (purple nutsedge; [7]) of the same compound?
The value was 1.
